Test results taken from patent US12319672B2, “Alpha-D-galactopyranoside derivatives” (Idorsia Pharmaceuticals Ltd, priority 2019, dated 2025).
pIC50: −log10 of the molar value.

Assays:
human Gal-1 (hGal-1) = test: Competitive binding assay: binding of biotinylated hGal-1 to microplate-adsorbed asialofetuin (ASF); details: Activities on hGal-1; mean values of several measurements
Method in brief: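 For hGal-1, a variant with all six cysteines replaced by serines is preferred. Either galectin, biotinylated at 300-1000 ng/mL, competes with compound for microplate-bound ASF over 3 h at 4° C; peroxidase/ABTS detection gives IC50, averaged.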

human Gal-3 (hGal-3) = human Gal-3 (hGal-3) (Homo sapiens (Human), UniProt P17931); test: Competitive binding assay: binding of biotinylated hGal-3 to microplate-adsorbed asialofetuin (ASF); details: Activity on hGal-3; mean values of several measurements
Chain of human Gal-3 (hGal-3) (P17931 whole entry): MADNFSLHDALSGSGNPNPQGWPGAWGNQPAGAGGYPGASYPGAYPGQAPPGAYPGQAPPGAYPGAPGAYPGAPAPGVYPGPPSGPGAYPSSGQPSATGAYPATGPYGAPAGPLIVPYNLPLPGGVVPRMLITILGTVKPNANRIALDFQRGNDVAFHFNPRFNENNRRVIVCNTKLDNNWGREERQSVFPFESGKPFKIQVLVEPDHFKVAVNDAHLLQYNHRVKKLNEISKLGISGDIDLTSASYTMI
Method in brief: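 Spectrophotometric readout (streptavidin-peroxidase, ABTS) of biotinylated galectin retained on ASF-coated wells. Biotinylated hGal-1 or hGal-3, 300-1000 ng/mL, co-incubated with test compound 3 h at 4° C, then washed. Mean IC50 from repeat runs.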

Chain of human Gal-1 (hGal-1) (P09382 2-135 limits assumed): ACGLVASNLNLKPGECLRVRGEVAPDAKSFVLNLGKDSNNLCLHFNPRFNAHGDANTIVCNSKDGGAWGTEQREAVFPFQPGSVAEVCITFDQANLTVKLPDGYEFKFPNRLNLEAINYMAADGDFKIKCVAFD

SMILES	pIC50 (human Gal-1 (hGal-1))	pIC50 (human Gal-3 (hGal-3))
CCN=S1(=O)CCC(n2cc(C[C@H]3O[C@H](CO)[C@H](O)[C@H](n4cc(-c5cc(F)c(F)c(F)c5)nn4)[C@H]3OC)nn2)CC1 (stereo partly drawn) [Example 4.24, 1-(ethylimino)-4-(4-(((2R,3R,4S,5R,6R)-5-hydroxy-6-(hydroxymethyl)-3-methoxy-4-(4-(3,4,5-trifluorophenyl)-1H-1,2,3-triazol-1-yl)tetrahydro-2H-pyran-2-yl)methyl)-1H-1,2,3-triazol-1-yl)hexahydro-1l6-thiopyran 1-oxide]	6.51	7.27
CN=S(=O)(C(C)C)N1CCC(c2cn(C[C@H]3O[C@H](CO)[C@H](O)[C@H](n4cc(-c5cc(F)c(F)c(F)c5)nn4)[C@H]3OC)nn2)CC1 (stereo partly drawn) [Example 4.25, (2R,3R,4S,5R,6R)-2-(hydroxymethyl)-5-methoxy-6-((4-(1-(N-methylpropan-2-ylsulfonimidoyl)piperidin-4-yl)-1H-1,2,3-triazol-1-yl)methyl)-4-(4-(3,4,5-trifluorophenyl)-1H-1,2,3-triazol-1-yl)tetrahydro-2H-pyran-3-ol]	5.80	6.92
CO[C@@H]1[C@@H](n2cc(-c3cc(F)c(F)c(F)c3)nn2)[C@@H](O)[C@@H](CO)O[C@@H]1Cn1cc(C2CCN(S(=O)(=O)N(C)C)CC2)nn1 [Example 4.26, 4-(1-(((2R,3R,4S,5R,6R)-5-hydroxy-6-(hydroxymethyl)-3-methoxy-4-(4-(3,4,5-trifluorophenyl)-1H-1,2,3-triazol-1-yl)tetrahydro-2H-pyran-2-yl)methyl)-1H-1,2,3-triazol-4-yl)-N,N-dimethylpiperidine-1-sulfonamide]	5.91	7.21
CO[C@@H]1[C@@H](n2cc(-c3cc(F)c(F)c(F)c3)nn2)[C@@H](O)[C@@H](CO)O[C@@H]1Cc1cn(C2CCS(=O)(=NCc3ccccc3)CC2)nn1 (stereo partly drawn) [Example 4.28, 1-(benzylimino)-4-(4-(((2R,3R,4S,5R,6R)-5-hydroxy-6-(hydroxymethyl)-3-methoxy-4-(4-(3,4,5-trifluorophenyl)-1H-1,2,3-triazol-1-yl)tetrahydro-2H-pyran-2-yl)methyl)-1H-1,2,3-triazol-1-yl)hexahydro-1l6-thiopyran 1-oxide]	6.92	7.89
CO[C@@H]1[C@@H](n2cc(-c3cc(F)c(F)c(F)c3)nn2)[C@@H](O)[C@@H](CO)O[C@@H]1Cn1cc(C2CCN(C(=O)NC3CC3)CC2)nn1 [Example 4.32, N-cyclopropyl-4-(1-(((2R,3R,4S,5R,6R)-5-hydroxy-6-(hydroxymethyl)-3-methoxy-4-(4-(3,4,5-trifluorophenyl)-1H-1,2,3-triazol-1-yl)tetrahydro-2H-pyran-2-yl)methyl)-1H-1,2,3-triazol-4-yl)piperidine-1-carboxamide]	6.05	7.19
CO[C@@H]1[C@@H](n2cc(-c3cc(F)c(F)c(F)c3)nn2)[C@@H](O)[C@@H](CO)O[C@@H]1Cc1cn(C2CCS(=O)(=NC3CCC(F)(F)CC3)CC2)nn1 (stereo partly drawn) [Example 4.33, 1-((4,4-difluorocyclohexyl)imino)-4-(4-(((2R,3R,4S,5R,6R)-5-hydroxy-6-(hydroxymethyl)-3-methoxy-4-(4-(3,4,5-trifluorophenyl)-1H-1,2,3-triazol-1-yl)tetrahydro-2H-pyran-2-yl)methyl)-1H-1,2,3-triazol-1-yl)hexahydro-1l6-thiopyran 1-oxide]	6.66	7.15
CO[C@@H]1[C@@H](n2cc(-c3cc(F)c(F)c(F)c3)nn2)[C@@H](O)[C@@H](CO)O[C@@H]1Cn1cc(C(C)(C)C)nn1 [Example 4.38, (2R,3R,4S,5R,6R)-6-((4-(tert-butyl)-1H-1,2,3-triazol-1-yl)methyl)-2-(hydroxymethyl)-5-methoxy-4-(4-(3,4,5-trifluorophenyl)-1H-1,2,3-triazol-1-yl)tetrahydro-2H-pyran-3-ol]	5.74	7.03
CCOC(=O)N1CCC(c2cn(C[C@H]3O[C@H](CO)[C@H](O)[C@H](n4cc(-c5cc(F)c(F)c(F)c5)nn4)[C@H]3OC)nn2)CC1 [Example 4.39, ethyl 4-(1-(((2R,3R,4S,5R,6R)-5-hydroxy-6-(hydroxymethyl)-3-methoxy-4-(4-(3,4,5-trifluorophenyl)-1H-1,2,3-triazol-1-yl)tetrahydro-2H-pyran-2-yl)methyl)-1H-1,2,3-triazol-4-yl)piperidine-1-carboxylate]	6.28	7.36
CO[C@@H]1[C@@H](n2cc(-c3cc(F)c(F)c(F)c3)nn2)[C@@H](O)[C@@H](CO)O[C@@H]1Cn1cc(C2CCOCC2)nn1 [Example 4.40, (2R,3R,4S,5R,6R)-2-(hydroxymethyl)-5-methoxy-6-((4-(tetrahydro-2H-pyran-4-yl)-1H-1,2,3-triazol-1-yl)methyl)-4-(4-(3,4,5-trifluorophenyl)-1H-1,2,3-triazol-1-yl)tetrahydro-2H-pyran-3-ol]	5.41	6.80

Further molecules by rising pIC50 (human Gal-1 (hGal-1)), results first:

pIC50 (human Gal-1 (hGal-1))	pIC50 (human Gal-3 (hGal-3))	SMILES
5.53	7.07	CO[C@@H]1[C@@H](n2cc(-c3cc(F)c(F)c(F)c3)nn2)[C@@H](O)[C@@H](CO)O[C@@H]1Cc1cn(C2CCCCC2)nn1 [Example 4.30, (2R,3R,4S,5R,6R)-6-((1-cyclohexyl-1H-1,2,3-triazol-4-yl)methyl)-2-(hydroxymethyl)-5-methoxy-4-(4-(3,4,5-trifluorophenyl)-1H-1,2,3-triazol-1-yl)tetrahydro-2H-pyran-3-ol]
5.56	6.51	CO[C@@H]1[C@@H](n2cc(-c3cc(F)c(F)c(F)c3)nn2)[C@@H](O)[C@@H](CO)O[C@@H]1Cn1cc(C2CCCCC2)nn1 [Example 4.29, (2R,3R,4S,5R,6R)-6-((4-cyclohexyl-1H-1,2,3-triazol-1-yl)methyl)-2-(hydroxymethyl)-5-methoxy-4-(4-(3,4,5-trifluorophenyl)-1H-1,2,3-triazol-1-yl)tetrahydro-2H-pyran-3-ol]
5.60	6.47	CO[C@@H]1[C@@H](n2cc(-c3cc(F)c(F)c(F)c3)nn2)[C@@H](O)[C@@H](CO)O[C@@H]1Cn1cc(C2(O)CCCC2)nn1 [Example 4.41, (2R,3R,4S,5R,6R)-6-((4-(1-hydroxycyclopentyl)-1H-1,2,3-triazol-1-yl)methyl)-2-(hydroxymethyl)-5-methoxy-4-(4-(3,4,5-trifluorophenyl)-1H-1,2,3-triazol-1-yl)tetrahydro-2H-pyran-3-ol]
6.24	7.72	CO[C@@H]1[C@@H](n2cc(-c3ccc(Br)c(F)c3)nn2)[C@@H](O)[C@@H](CO)O[C@@H]1Cc1cn(C2CCN(C(=O)OCc3ccccc3)CC2)nn1 [Example 4.36, benzyl 4-(4-(((2R,3R,4S,5R,6R)-4-(4-(4-bromo-3-fluorophenyl)-1H-1,2,3-triazol-1-yl)-5-hydroxy-6-(hydroxymethyl)-3-methoxytetrahydro-2H-pyran-2-yl)methyl)-1H-1,2,3-triazol-1-yl)piperidine-1-carboxylate]
6.37	7.60	CO[C@@H]1[C@@H](n2cc(-c3ccc(Cl)c(F)c3)nn2)[C@@H](O)[C@@H](CO)O[C@@H]1Cc1cn(C2CCN(C(=O)OCc3ccccc3)CC2)nn1 [Example 4.34, benzyl 4-(4-(((2R,3R,4S,5R,6R)-4-(4-(4-chloro-3-fluorophenyl)-1H-1,2,3-triazol-1-yl)-5-hydroxy-6-(hydroxymethyl)-3-methoxytetrahydro-2H-pyran-2-yl)methyl)-1H-1,2,3-triazol-1-yl)piperidine-1-carboxylate]
6.42	7.47	CO[C@@H]1[C@@H](n2cc(-c3cc(F)c(F)c(F)c3)nn2)[C@@H](O)[C@@H](CO)O[C@@H]1Cn1cc(C2CCN(C(=O)NC(C)(C)C)CC2)nn1 [Example 4.27, N-(tert-butyl)-4-(1-(((2R,3R,4S,5R,6R)-5-hydroxy-6-(hydroxymethyl)-3-methoxy-4-(4-(3,4,5-trifluorophenyl)-1H-1,2,3-triazol-1-yl)tetrahydro-2H-pyran-2-yl)methyl)-1H-1,2,3-triazol-4-yl)piperidine-1-carboxamide]
6.49	7.57	CO[C@@H]1[C@@H](n2cc(-c3cc(F)c(F)c(F)c3)nn2)[C@@H](O)[C@@H](CO)O[C@@H]1Cc1cn(C2CCS(=O)(=NC(C)C)CC2)nn1 (stereo partly drawn) [Example 4.31, 4-(4-(((2R,3R,4S,5R,6R)-5-hydroxy-6-(hydroxymethyl)-3-methoxy-4-(4-(3,4,5-trifluorophenyl)-1H-1,2,3-triazol-1-yl)tetrahydro-2H-pyran-2-yl)methyl)-1H-1,2,3-triazol-1-yl)-1-(isopropylimino)hexahydro-1l6-thiopyran 1-oxide]
6.77	7.82	CO[C@@H]1[C@@H](n2cc(-c3cc(F)cc(F)c3)nn2)[C@@H](O)[C@@H](CO)O[C@@H]1Cc1cn(C2CCN(C(=O)OCc3ccccc3)CC2)nn1 [Example 4.37, benzyl 4-(4-(((2R,3R,4S,5R,6R)-4-(4-(3,5-difluorophenyl)-1H-1,2,3-triazol-1-yl)-5-hydroxy-6-(hydroxymethyl)-3-methoxytetrahydro-2H-pyran-2-yl)methyl)-1H-1,2,3-triazol-1-yl)piperidine-1-carboxylate]
6.82	7.40	CO[C@@H]1[C@@H](n2cc(-c3cccc(F)c3)nn2)[C@@H](O)[C@@H](CO)O[C@@H]1Cc1cn(C2CCN(C(=O)OCc3ccccc3)CC2)nn1 [Example 4.35, benzyl 4-(4-(((2R,3R,4S,5R,6R)-4-(4-(3-fluorophenyl)-1H-1,2,3-triazol-1-yl)-5-hydroxy-6-(hydroxymethyl)-3-methoxytetrahydro-2H-pyran-2-yl)methyl)-1H-1,2,3-triazol-1-yl)piperidine-1-carboxylate]
